Key:
Type in all cases: in vitro ADME
Conditions in all cases: human liver microsomes; >75 = low level of inhibition
CYP 3A4 = molecular target: T1, CYP 3A4 (Homo sapiens, UniProt P08684); test: CYP inhibition testing, CYP 3A4
T1 construct: For human liver microsome solution, a stock solution (20 mg/mL (4×final)) is used; from tissue; host or cells: human liver microsomes
Experimental: (§1) Select compounds are tested for CYP inhibition against five different CYP enzymes: CYP 1A2, CYP 2C9, CYP 2C19, CYP 2D6, CYP 3A4. Individual CYP enzymes are incubated with corresponding substrates with no inhibitor (negative control). Individual CYP enzymes are then incubated with corresponding substrates in the presence of test compound. […] Values of 70>v, w, x, y, z>30 indicate moderate level of inhibition of the corresponding enzyme.
(§2) The following reagents are used: Sodium Phosphate, monobasic; Sodium Phosphate, dibasic; β-Nicotinamide Adenine Dinucleotide Phosphate-Reduced (NADPH), Roche; Milli-Q Water; 0.1 M Potassium phosphate buffer (K-buffer), pH 7.4. The following stock solutions are used. Stock A (136.5 g of monobasic potassium phosphate in 1 L of Milli-Q water (1.0 M)). Stock B (174.2 g of dibasic potassium phosphate in 1 L of Milli-Q water (1.0 M)). 40.5 mL of Stock B is mixed with 9.5 mL of Stock A, and the total volume brought near 500 mL with Milli-Q water to give 0.1 M potassium phosphate buffer. The buffer is titrated with KOH or H3PO4 to pH 7.4. To prepare a cofactor buffer (4×, 8 mM NADPH), 66.7 mg of NADPH tetrasodium salt is dissolved in 10 mL of K-buffer. For human liver microsome solution, a stock solution (20 mg/mL (4×final)) is used.
(§3) The following Positive control stock solutions are prepared: 0.3 mM α-Naphthoflavone (MW: 272.3, 0.0817 mg of α-Naphthoflavone in 1 mL DMSO), 10 mM Sulfaphenazole (MW: 314.4, 3.14 mg of sulfaphenazole in 1 mL DMSO) 100 mM Omeprazole (MW: 345.4, 34.54 mg of omeprazole in 1 mL DMSO), 2.5 mM Quinidine (MW: 324, 0.81 mg of quinidine in 1 mL DMSO), and 2.5 mM Ketoconazole (MW: 531.4, 1.33 mg of ketoconazole in 1 mL DMSO).
(§4) The following substrate stock solutions are prepared: 6 mM Phenacetin (MW: 179.22, 1.075 mg of phenacetin in 1 mL can), 10 mM Diclofenac (MW: 318.83, 3.18 mg of Diclofenac in 1 ml H2O), 35 mM S-Mephenyloin (MW: 218.25, 7.64 mg of s-mephenyloin in 1 mL ACN 10 mM Bufuralol (MW: 297.82, 2.98 mg of Bufuralol in 1 ml H2O), 1 mM Midazolam (MW: 325.77, 0.326 mg of midazolam in 1 mL can), and 10 mM Testosterone (MW: 288.42, 2.88 mg of Testosterone in 1 ml ACN.
(§5) Test compounds and reference compounds (positive control) are prepared in 0.2 mg/ml liver microsome solution. A 0.2 mg/ml liver microsome solution (2×final) is prepared from stock solution by adding 10 μL microsome stock solutions (20 mg/ml) in 990 μL K-buffer. 8 μL of 10 mM test compound stock solution (in DMSO or other solvent at various concentrations) is diluted with 12 μL ACN to make 4 mM solutions. 1:3 serial dilutions are performed using DMSO/ACN (40:60) from 4 mM solution further down seven concentration points (400×final): 4 mM, 1.33 mM, 0.44 mM, 0.148 mM, […], 0.0165 mM, 0.00549 mM, 0 mM. […]

CYP 2C9 = molecular target: T2, CYP 2C9 (Homo sapiens, UniProt P11712); test: CYP inhibition testing, CYP 2C9
T2 construct: For human liver microsome solution, a stock solution (20 mg/mL (4×final)) is used; from tissue; host or cells: human liver microsomes
T2 sequence (P11712 whole entry): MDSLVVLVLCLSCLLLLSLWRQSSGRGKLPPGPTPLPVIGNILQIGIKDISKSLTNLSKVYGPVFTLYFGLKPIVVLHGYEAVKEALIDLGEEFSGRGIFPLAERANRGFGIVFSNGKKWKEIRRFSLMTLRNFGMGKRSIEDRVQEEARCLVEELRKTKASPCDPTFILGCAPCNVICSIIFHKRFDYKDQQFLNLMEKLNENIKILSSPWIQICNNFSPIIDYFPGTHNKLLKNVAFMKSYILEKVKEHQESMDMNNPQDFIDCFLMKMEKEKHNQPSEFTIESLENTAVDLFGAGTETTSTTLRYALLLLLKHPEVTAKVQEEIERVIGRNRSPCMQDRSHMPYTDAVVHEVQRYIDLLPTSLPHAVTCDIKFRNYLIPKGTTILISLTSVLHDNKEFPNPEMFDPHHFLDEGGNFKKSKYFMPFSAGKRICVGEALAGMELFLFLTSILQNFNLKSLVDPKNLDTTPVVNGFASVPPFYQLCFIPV
Experimental: as §1, §2, §3, §4, §5

CYP 2D6 = molecular target: T3, CYP 2D6 (Homo sapiens, UniProt P10635); test: CYP inhibition testing, CYP 2D6
T3 construct: For human liver microsome solution, a stock solution (20 mg/mL (4×final)) is used; from tissue; host or cells: human liver microsomes
T3 sequence (P10635 whole entry): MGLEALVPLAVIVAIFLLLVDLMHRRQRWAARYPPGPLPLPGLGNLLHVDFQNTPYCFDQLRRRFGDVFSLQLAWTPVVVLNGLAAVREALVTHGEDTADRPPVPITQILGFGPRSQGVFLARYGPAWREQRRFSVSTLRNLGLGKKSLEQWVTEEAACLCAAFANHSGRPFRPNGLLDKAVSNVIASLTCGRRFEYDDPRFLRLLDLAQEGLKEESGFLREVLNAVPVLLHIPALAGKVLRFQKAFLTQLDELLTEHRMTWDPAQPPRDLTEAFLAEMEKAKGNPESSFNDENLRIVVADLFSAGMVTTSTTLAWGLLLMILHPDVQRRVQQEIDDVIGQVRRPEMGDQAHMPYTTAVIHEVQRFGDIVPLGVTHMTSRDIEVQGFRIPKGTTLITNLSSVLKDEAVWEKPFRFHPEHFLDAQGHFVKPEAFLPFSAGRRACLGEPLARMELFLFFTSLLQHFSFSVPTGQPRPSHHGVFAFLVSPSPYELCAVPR
Experimental: as §1, §2, §3, §4, §5

CYP 2C19 = molecular target: T4, CYP 2C19 (Homo sapiens, UniProt P33261); test: CYP inhibition testing, CYP 2C19
T4 construct: For human liver microsome solution, a stock solution (20 mg/mL (4×final)) is used; from tissue; host or cells: human liver microsomes
T4 sequence (P33261 whole entry): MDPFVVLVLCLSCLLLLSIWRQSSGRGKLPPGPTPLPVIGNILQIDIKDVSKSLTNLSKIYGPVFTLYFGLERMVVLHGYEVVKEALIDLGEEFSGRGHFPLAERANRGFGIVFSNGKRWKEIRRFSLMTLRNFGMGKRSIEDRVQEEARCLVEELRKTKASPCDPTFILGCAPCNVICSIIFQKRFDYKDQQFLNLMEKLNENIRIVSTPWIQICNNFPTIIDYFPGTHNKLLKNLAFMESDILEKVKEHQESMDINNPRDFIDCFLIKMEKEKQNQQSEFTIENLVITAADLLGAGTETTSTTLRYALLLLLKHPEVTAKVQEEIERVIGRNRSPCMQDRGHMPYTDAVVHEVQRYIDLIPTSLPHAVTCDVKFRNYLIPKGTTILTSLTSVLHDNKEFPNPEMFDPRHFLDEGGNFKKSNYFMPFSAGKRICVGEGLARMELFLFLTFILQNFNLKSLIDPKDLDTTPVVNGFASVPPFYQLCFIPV
Experimental: as §1, §2, §3, §4, §5

T1 sequence (P08684 whole entry): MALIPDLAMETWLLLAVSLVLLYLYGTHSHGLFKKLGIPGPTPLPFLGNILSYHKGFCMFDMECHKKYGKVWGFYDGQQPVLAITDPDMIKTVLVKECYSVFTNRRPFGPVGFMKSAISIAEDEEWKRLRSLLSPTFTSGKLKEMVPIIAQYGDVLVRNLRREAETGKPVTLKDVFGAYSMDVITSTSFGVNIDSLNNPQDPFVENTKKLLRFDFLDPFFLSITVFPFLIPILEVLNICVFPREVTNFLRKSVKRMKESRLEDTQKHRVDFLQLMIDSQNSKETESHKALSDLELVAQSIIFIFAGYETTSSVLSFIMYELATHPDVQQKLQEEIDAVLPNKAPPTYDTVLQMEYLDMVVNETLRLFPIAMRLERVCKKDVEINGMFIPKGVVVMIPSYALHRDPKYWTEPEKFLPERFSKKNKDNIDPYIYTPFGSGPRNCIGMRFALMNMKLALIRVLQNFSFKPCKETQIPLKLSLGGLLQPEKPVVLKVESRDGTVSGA

Cn1nc(CCCN2CCCC2)c2ccc(N3CCCCCCC3)nc21 [compound 1171]
CYP (% negative controls) 3A4 (CYP 3A4): 67 % negative controls | CYP (% negative controls) 2C9 (CYP 2C9): 141 % negative controls | CYP (% negative controls) 2D6 (CYP 2D6): 62 % negative controls | CYP (% negative controls) 2C19 (CYP 2C19): 72 % negative controls
